Assay results as given in US12655106B2 (Eikonizo Therapeutics, Inc., priority 2021, dated 2026).

How the values were obtained:
[1] = target: T1, Full length Human HDAC8 (Homo sapiens, UniProt Q9BY41); test: Caliper endpoint assay for HDAC enzymatic activity (HDAC8); assay type: biochemical; details: in vitro enzymatic, 30 min pre-incubation, 1 μM substrate peptide
T1 construct: Full length Human HDAC8; HIS (N); host or cells: baculovirus expression system
T1 sequence (Q9BY41 1-377): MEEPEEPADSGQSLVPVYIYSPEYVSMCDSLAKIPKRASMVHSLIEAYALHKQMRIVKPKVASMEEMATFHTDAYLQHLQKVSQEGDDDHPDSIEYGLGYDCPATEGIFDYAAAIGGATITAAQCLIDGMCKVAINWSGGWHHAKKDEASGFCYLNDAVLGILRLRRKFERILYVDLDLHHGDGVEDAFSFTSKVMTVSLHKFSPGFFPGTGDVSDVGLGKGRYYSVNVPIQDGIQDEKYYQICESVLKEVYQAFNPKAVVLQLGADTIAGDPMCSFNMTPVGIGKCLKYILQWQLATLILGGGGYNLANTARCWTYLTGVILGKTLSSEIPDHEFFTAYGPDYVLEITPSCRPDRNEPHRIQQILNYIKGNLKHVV

[2] = target: T2, Full length Human HDAC6 (Homo sapiens, UniProt Q9UBN7); test: Caliper endpoint assay for HDAC enzymatic activity (HDAC6); assay type: biochemical; details: for IC50: in vitro enzymatic, Caliper endpoint assay, 30 min pre-incubation, 1 μM substrate peptide; for Selectivity (6 v 8): ratio of HDAC8 IC50/HDAC6 IC50
T2 construct: Full length Human HDAC6; FLAG (C); host or cells: baculovirus expression system
T2 sequence (Q9UBN7 1-1215): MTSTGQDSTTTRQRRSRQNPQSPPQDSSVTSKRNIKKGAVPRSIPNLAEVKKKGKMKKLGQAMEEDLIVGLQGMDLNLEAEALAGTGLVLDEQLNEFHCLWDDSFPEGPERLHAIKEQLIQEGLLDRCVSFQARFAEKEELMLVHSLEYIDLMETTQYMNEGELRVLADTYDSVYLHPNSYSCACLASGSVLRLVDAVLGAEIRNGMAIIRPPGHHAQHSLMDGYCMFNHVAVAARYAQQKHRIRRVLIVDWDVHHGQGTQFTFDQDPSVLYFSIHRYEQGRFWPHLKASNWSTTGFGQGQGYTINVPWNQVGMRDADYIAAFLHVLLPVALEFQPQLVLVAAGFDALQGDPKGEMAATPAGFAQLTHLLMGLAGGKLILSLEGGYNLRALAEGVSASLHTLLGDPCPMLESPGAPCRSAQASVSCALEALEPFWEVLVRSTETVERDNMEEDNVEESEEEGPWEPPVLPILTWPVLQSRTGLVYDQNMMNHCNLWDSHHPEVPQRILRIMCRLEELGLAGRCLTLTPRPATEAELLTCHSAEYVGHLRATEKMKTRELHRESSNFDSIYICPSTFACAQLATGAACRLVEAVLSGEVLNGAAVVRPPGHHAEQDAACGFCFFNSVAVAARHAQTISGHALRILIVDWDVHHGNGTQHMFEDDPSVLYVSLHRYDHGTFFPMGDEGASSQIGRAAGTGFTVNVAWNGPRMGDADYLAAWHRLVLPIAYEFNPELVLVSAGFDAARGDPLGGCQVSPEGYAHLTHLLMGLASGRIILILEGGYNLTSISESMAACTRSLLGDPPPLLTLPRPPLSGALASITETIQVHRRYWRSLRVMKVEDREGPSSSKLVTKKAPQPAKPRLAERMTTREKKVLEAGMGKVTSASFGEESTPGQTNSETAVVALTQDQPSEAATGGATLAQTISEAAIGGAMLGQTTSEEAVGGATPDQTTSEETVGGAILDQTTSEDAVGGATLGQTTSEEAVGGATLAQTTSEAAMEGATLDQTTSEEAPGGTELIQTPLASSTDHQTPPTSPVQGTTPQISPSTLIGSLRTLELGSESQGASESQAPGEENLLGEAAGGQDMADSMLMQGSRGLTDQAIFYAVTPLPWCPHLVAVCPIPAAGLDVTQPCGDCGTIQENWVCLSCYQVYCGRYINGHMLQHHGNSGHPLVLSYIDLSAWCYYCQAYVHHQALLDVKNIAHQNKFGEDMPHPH

Structure (SMILES) | IC50 [1] [nM] | IC50 [2] [nM] | Selectivity (6 v 8) [2]
O=C(NO)c1cc(F)c2c(c1)C[C@@H]1CCCN1C2 (single isomer, unassigned) [Compound 119] | 10000 to 100000 | 100 to 1000 | III (III: >10-100)
O=C(NO)c1cc(F)c2c(c1)CN1CCCC[C@@H]1C2 [Compound 145] | 10000 to 100000 | 1 to 100 | IV (IV: >100-1000)
CN1CC[C@H](N2CCc3cc(C(=O)NO)cc(F)c3C2)CC12CCC2 (single isomer, unassigned) [Compound 437] | 10000 to 100000 | 1 to 100 | IV (IV: >100-1000)
O=C(NO)c1cc(F)c2c(c1)CCN(C1CC3(CCNCC3)C1)C2 [Compound 197, 2-(7-azaspiro[3.5]nonan-2-yl)-8-fluoro-3,4-dihydro-1H-isoquinoline-6-carbohydroxamic acid] | 10000 to 100000 | 1 to 100 | IV (IV: >100-1000)
O=C(NO)c1cc(F)c2c(c1)C[C@H]1CCCCN1C2 [Compound 94] | 1000 to 10000 | 100 to 1000 | III (III: >10-100)
O=C(NO)c1cc(F)c2c(c1)CCN(CC13CCC(CC1)C(=O)N3)C2 [Compound 461, 8-fluoro-2-[(3-oxo-2-azabicyclo[2.2.2]octan-1-yl)methyl]-3,4-dihydro-1H-isoquinoline-6-carbohydroxamic acid] | 1000 to 10000 | 1 to 100 | V (V: >1000)
O=C(NO)c1cc(F)c2c(c1)CCN(C1CC[C@@]13CCCO3)C2 (single isomer, unassigned) [Compound 319] | 1000 to 10000 | 1 to 100 | IV (IV: >100-1000)
CN1Cc2cc(C(=O)NO)cc(F)c2CN1Cc1ccccc1 [Compound 118] | 1000 to 10000 | 1 to 100 | IV (IV: >100-1000)
O=C(NO)c1ccc2c(c1)CN1CCCC[C@H]1C2 [Compound 144] | 10000 to 100000 | 100 to 1000 | III (III: >10-100)
O=C(NO)c1cc(F)c2c(c1)CCN(C1CCC3(CCN(C4CC4)CC3)C1)C2 (centres unmarked) [Compound 418, N-2-(8-cyclopropyl-8-azaspiro[4.5]decan-2-yl)-8-fluoro-N-hydroxy-1,2,3,4-tetrahydroisoquinoline-6-carboxamide] | 1000 to 10000 | 1 to 100 | IV (IV: >100-1000)
O=C(NO)c1cc(F)c2c(c1)CCN(C[C@H]1CCC3(CCCCC3)C1)C2 (single isomer, unassigned) [Compound 108] | 10000 to 100000 | 1 to 100 | –
CN1CC[C@]2(CC[C@H]2N2CCc3cc(C(=O)NO)cc(F)c3C2)C1 (single isomer, unassigned) [Compound 332] | 1000 to 10000 | 100 to 1000 | III (III: >10-100)
O=C(NO)c1ccc2c(c1)C[C@H]1COCC(=O)N1C2 (single isomer, unassigned) [Compound 134] | 1000 to 10000 | 1 to 100 | –
O=C(NO)c1cc(F)c2c(c1)CCN(C1CCC3(C1)CN(C1CC1)C3)C2 (centres unmarked) [Compound 390, 2-(2-cyclopropyl-2-azaspiro[3.4]octan-6-yl)-8-fluoro-3,4-dihydro-1H-isoquinoline-6-carbohydroxamic acid] | 10000 to 100000 | 100 to 1000 | III (III: >10-100)
O=C(NO)c1cc(F)c2c(c1)CCN(C1CC3(CNC3)C1)C2 [Compound 289, 2-(2-azaspiro[3.3]heptan-6-yl)-8-fluoro-3,4-dihydro-1H-isoquinoline-6-carbohydroxamic acid] | 1000 to 10000 | 1 to 100 | IV (IV: >100-1000)
O=C(NO)c1ccc2c(c1)CCN1CCC[C@@H]21 [Compound 149] | 1000 to 10000 | 100 to 1000 | II (II: >1-10)
O=C(NO)c1cc(F)c2c(c1)CCN([C@H]1CCN(Cc3ccccc3)C3(CCC3)C1)C2 (single isomer, unassigned) [Compound 443] | 10000 to 100000 | 1 to 100 | IV (IV: >100-1000)
CC[C@H]1Cc2c(F)cc(C(=O)NO)cc2CN1C[C@@]12C[C@@H](CO1)N(C)C2 (single isomer, unassigned) [Compound 553] | 10000 to 100000 | 1 to 100 | IV (IV: >100-1000)
CN1CCC[C@]2(CC[C@H]2N2CCc3cc(C(=O)NO)cc(F)c3C2)C1 (single isomer, unassigned) [Compound 363] | 10000 to 100000 | 1 to 100 | IV (IV: >100-1000)
O=C(NO)c1ccc(CN2C[C@H]3CC[C@@H]2CO3)c(F)c1 [Compound 173] | 1000 to 10000 | 1 to 100 | –
O=C(NO)c1cc(F)c2c(c1)C[C@@H]1CCC3(CCCCC3)CN1C2 (single isomer, unassigned) [Compound 137] | 10000 to 100000 | 100 to 1000 | –
CC[C@H](c1ccc(C(=O)NO)cc1F)N1CCC2(CCCCC2)C1 (single isomer, unassigned) [Compound 238] | 1000 to 10000 | 100 to 1000 | III (III: >10-100)
O=C(NO)c1cc(F)c2c(c1)CCN([C@H]1CCCC3(CCC3)C1)C2 (single isomer, unassigned) [Compound 195] | 10000 to 100000 | 1 to 100 | IV (IV: >100-1000)
CC[C@@H]1Cc2c(F)cc(C(=O)NO)cc2CN1C1CC2(CCOCC2)C1 (single isomer, unassigned) [Compound 590] | 10000 to 100000 | 100 to 1000 | III (III: >10-100)
CN1CCC[C@]2(CC[C@@H]2N2CCc3cc(C(=O)NO)cc(F)c3C2)C1 (single isomer, unassigned) [Compound 365] | 10000 to 100000 | 1 to 100 | IV (IV: >100-1000)
CC[C@@H](c1ccc(C(=O)NO)cc1F)N1CCC2(CCCCC2)C1 (single isomer, unassigned) [Compound 237] | 1000 to 10000 | 100 to 1000 | II (II: >1-10)
CC[C@H]1Cc2c(F)cc(C(=O)NO)cc2CN1C[C@]12C[C@H](CO1)N(C)C2 (single isomer, unassigned) [Compound 552] | 10000 to 100000 | 1 to 100 | IV (IV: >100-1000)
O=C(NO)c1cc(F)c2c(c1)C[C@H]1CCCN1C2 [Compound 120] | 1000 to 10000 | 1 to 100 | IV (IV: >100-1000)
